For six molecules, solubility, IC50 and half-life results are on record in patent publication US20230219965A1 (KSQ Therapeutics, Inc., priority 2020, published 2023).

Each structure is given as a SMILES string. Read-outs that look alike come from different tables or passages of the source. Some results are limits rather than exact numbers.

Data set [1] can be described thus: ADME solubility determination in PBS at pH 2.0 and pH 7.4. To be noted: phosphate buffered saline, 25 °C, thermodynamic from solid. It counts as physicochemical. In a few lines:
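Dried 10 mM DMSO stock residues taken up in PBS pH 7.4 or pH 2.0, shaken 24 h at 25° C. After centrifugation, supernatant quantified by LC-MS/MS against a standard of known concentration, with a dilution factor applied.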

The next data set addresses USP1/UAF1 enzyme (Homo sapiens, UniProt O94782). The experiment in a line: USP1/UAF1 deubiquitination assay (ubiquitin-rhodamine 110 substrate). The data set is classed as biochemical. The following applies: read-out: USP1 IC50 (Ub-Rho). In a few lines: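 0.05 nM USP1/UAF1 was preincubated 10 min with compounds (dose response from 10 μM) in 50 mM Tris-HCl pH 7.8, 0.5 mM EDTA, 0.01% BSA, 1 mM DTT, 0.01% Tween-20. 150 nM ubiquitin-rhodamine 110 started the reaction, read kinetically 30 min at Ex480/Em540; IC50 by four-parameter fit versus no-enzyme and DMSO controls.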

Data set [2] in a line: Liver microsomal metabolic stability, human liver microsomes (HLM). To be noted: human, liver microsomes.
Data set [3] deals with Ub-PCNA levels in the nucleus of ES2 cells (USP1 activity). The experiment in a line: ES2 Ub-PCNA immunofluorescence (IF) assay. It counts as cell-based. The following applies: Homo sapiens, ES-2; ES2 cells, 3 hours, Ub-PCNA immunofluorescence; read-out: USP1 IC50 (Ub-PCNA). In a few lines:
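Cells plated overnight, then compound-treated for 3 h at 37° C (0.3% DMSO final), methanol-fixed and stained with anti-Ub-PCNA plus DAPI. Per-nucleus Ub-PCNA intensity imaged; cells above the 95% cutoff of untreated wells counted as positive, and percent positive cells used to derive AC50.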

Data set [4] can be described thus: Liver microsomal metabolic stability, rat liver microsomes (RLM). To be noted: rat, liver microsomes, t1/2 (min) in RLM, 1 μM compound, 1 mg/mL microsomes, NADPH.
[5] abbreviates: pH 2, aqueous buffer, PBS pH 2.0, 25° C., read-out: Solubility at pH 2.0.
[6] abbreviates: pH 7.4, aqueous buffer, PBS pH 7.4, 25° C., read-out: Solubility at pH 7.4.

Sequence of USP1/UAF1 enzyme (O94782 whole entry): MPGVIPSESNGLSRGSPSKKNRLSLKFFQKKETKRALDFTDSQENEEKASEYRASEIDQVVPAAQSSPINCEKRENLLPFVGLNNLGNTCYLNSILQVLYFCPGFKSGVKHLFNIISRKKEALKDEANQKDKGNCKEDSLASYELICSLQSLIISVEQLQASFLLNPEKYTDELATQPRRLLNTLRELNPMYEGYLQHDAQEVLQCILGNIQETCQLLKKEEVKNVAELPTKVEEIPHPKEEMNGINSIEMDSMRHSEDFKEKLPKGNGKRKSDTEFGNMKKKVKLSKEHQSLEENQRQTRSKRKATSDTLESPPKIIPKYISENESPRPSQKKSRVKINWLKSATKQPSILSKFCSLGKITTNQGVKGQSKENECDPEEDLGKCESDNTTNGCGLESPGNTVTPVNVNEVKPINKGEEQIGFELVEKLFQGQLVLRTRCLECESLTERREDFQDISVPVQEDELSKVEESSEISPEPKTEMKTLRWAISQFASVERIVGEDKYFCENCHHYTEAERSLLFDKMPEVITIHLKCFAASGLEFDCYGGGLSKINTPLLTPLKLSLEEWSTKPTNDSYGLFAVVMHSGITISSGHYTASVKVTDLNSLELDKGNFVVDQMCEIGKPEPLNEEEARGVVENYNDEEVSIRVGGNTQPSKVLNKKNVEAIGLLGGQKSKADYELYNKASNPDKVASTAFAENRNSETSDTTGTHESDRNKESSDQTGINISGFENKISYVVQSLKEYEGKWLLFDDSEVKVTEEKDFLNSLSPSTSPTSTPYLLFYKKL
Sequence of USP1/UAF1 enzyme (Q8TAF3 whole entry partner): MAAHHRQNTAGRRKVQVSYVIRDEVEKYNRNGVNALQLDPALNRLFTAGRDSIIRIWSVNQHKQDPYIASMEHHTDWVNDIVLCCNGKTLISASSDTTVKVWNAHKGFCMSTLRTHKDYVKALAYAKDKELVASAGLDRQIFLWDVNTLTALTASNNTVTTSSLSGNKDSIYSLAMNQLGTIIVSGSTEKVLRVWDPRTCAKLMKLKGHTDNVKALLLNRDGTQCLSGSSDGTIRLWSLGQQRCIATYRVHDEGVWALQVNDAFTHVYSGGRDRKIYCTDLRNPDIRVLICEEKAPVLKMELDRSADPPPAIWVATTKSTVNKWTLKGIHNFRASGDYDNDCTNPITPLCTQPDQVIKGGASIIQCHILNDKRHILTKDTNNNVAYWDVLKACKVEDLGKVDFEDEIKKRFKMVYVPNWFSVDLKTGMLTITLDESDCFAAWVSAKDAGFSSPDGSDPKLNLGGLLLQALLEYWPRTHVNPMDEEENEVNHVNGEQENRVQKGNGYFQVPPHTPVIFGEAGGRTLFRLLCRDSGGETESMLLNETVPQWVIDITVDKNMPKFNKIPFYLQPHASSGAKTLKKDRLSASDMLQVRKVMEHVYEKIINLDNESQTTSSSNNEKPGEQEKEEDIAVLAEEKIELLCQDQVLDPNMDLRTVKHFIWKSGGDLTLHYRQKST

`CCn1cc(C(F)(F)F)nc1-c1ccc(NC2CCCn3nc(-c4c(Cl)cnn4C(C)C)cc32)cc1C#N` (stereo not drawn) [Example 255, 5-((2-(4-chloro-1-isopropyl-1H-pyrazol-5-yl)-4,5,6,7-tetrahydropyrazolo[1,5-a]pyridin-4-yl)amino)-2-(1-ethyl-4-(trifluoromethyl)-1H-imidazol-2-yl)benzonitrile]: the solubility at 24 h in data set [1] (setting [5]) and in data set [1] (setting [6]) was less than 10 µM in each case. For the same molecule, the IC50 on USP1/UAF1 enzyme is less than 100 nM; in data set [3], 100 to 500 nM. Further, the half-life at 1 μM in data set [2] was greater than 25 min; in data set [4], less than 25 min.

On to `CCn1cc(C(F)(F)F)nc1-c1ccc(N(C)C2CCCn3nc(-c4c(Cl)cnn4C(C)C)cc32)cc1` (stereo not drawn) [Example 258, 2-(4-chloro-1-isopropyl-1H-pyrazol-5-yl)-N-(4-(1-ethyl-4-(trifluoromethyl)-1H-imidazol-2-yl)phenyl)-N-methyl-4,5,6,7-tetrahydropyrazolo[1,5-α]pyridin-4-amine], for which the solubility at 24 h in data set [1] (setting [5]) and in data set [1] (setting [6]) was less than 10 µM each time. Besides, the IC50 at USP1/UAF1 enzyme was less than 100 nM; in data set [3], 100 to 500 nM. The half-life at 1 μM in data set [2] and in data set [4] was less than 25 min each time.

Regarding `CCn1cc(C(F)(F)F)nc1-c1ccc(OC2CCCn3nc(-c4c(Cl)cnn4C(C)C)cc32)cc1` (stereo not drawn) [Example 261, 2-(4-chloro-1-isopropyl-1H-pyrazol-5-yl)-4-(4-(1-ethyl-4-(trifluoromethyl)-1H-imidazol-2-yl)phenoxy)-4,5,6,7-tetrahydropyrazolo[1,5-α]pyridine], the solubility at 24 h in data set [1] (setting [5]) and in data set [1] (setting [6]) was less than 10 µM each time. Moreover, the IC50 (on USP1/UAF1 enzyme; in data set [3]) was less than 100 nM in each case. In addition, the half-life at 1 μM in data set [2] and in data set [4] was greater than 25 min in each case.

Regarding `CCn1cc(C(F)(F)F)nc1-c1ccc(OC2CCCn3nc(-c4c(Cl)cnn4C(C)C)cc32)cc1F` (stereo not drawn) [Example 262], the solubility at 24 h in data set [1] (setting [5]) and in data set [1] (setting [6]) was less than 10 µM throughout. For the same molecule, the results for the IC50 (at USP1/UAF1 enzyme; in data set [3]) were less than 100 nM and 100 to 500 nM, respectively. The half-life at 1 μM in data set [2] and in data set [4] was greater than 25 min each time.

As to `CCn1cc(C(F)(F)F)nc1-c1ccc(CC2OCCn3nc(-c4c(Cl)cnn4C(C)C)cc32)cc1` (stereo not drawn) [Example 265, 2-(4-chloro-1-isopropyl-1H-pyrazol-5-yl)-4-(4-(1-ethyl-4-(trifluoromethyl)-1H-imidazol-2-yl)benzyl)-6,7-dihydro-4H-pyrazolo[5,1-c][1,4]oxazine], the solubility at 24 h in data set [1] (setting [5]) and in data set [1] (setting [6]) was less than 10 µM in each case. Besides, the IC50 on USP1/UAF1 enzyme is less than 100 nM; in data set [3], 100 to 500 nM. Further, the half-life at 1 μM in data set [2] and in data set [4] was less than 25 min each time.

On to `CCn1cc(C(F)(F)F)nc1-c1ccc(NC2CCCn3nc(-c4c(C#N)cnn4C(C)C)cc32)cc1F` (stereo not drawn) [Example 266, 5-(4-((4-(1-ethyl-4-(trifluoromethyl)-1H-imidazol-2-yl)-3-fluorophenyl)amino)-4,5,6,7-tetrahydropyrazolo[1,5-α]pyridin-2-yl)-1-isopropyl-1H-pyrazole-4-carbonitrile], for which the solubility at 24 h in data set [1] (setting [5]) and in data set [1] (setting [6]) was less than 10 µM throughout. In addition, the IC50 is less than 100 nM on USP1/UAF1 enzyme and 100 to 500 nM in data set [3]. The half-life at 1 μM in data set [2] and in data set [4] was greater than 25 min throughout.
